Data: patent US12514866B2, “Method for treating cancer” (National Taiwan University, priority 2021, dated 2026)
Entries after “also recorded” stand apart in the source; their conditions may differ.

Assays:
A549 lung cancer cells = experiment: Real-time impedance (ECIS) monitoring of γδ T cell killing; conditions: low dose
Protocol: In addition, real-time monitoring of γδ T-mediated killing of cancer cells was performed using the Electric Cell-Substrate Impedance Sensing (ECIS) monitoring system with an 8W10E+ culture chamber (Applied Biophysics). Mock or DAC-treated cancer cells were cultured in the chamber at 37° C. overnight until the cancer cells were fully attached to the bottom of the wells. Following the addition of γδ T cells, the detachment of cancer cells indicating cell death was recorded in real-time using multiple frequency capture with the ECIS software. Relative impendence at the time of γδ T cell addition was used for between-sample normalization.

[1] = test system: A549 human lung cancer cells; experiment: SILAC-based quantitative surface proteomics of decitabine-treated cells; assay type: cell-based; conditions: A549, both D3 and D3R3, 100 nM
Protocol: (§1) For drug treatment experiments, cells were cultured with 100 nM decitabine (DAC; A3656, Sigma-Aldrich) for three days with daily change of complete medium and drug replenishment, followed by 3 to 4 days of cell recovery in the decitabine-free medium. To block the DAC's effect on immune synapse formation via actin cytoskeleton reorganization, the DAC-pretreated (D3R3) cells were treated with 1 μg/mL cytochalasin B (Cyto B; C6762, Sigma-Aldrich) for 1.5 hours prior to coculture with γδ T cells.
(§2) For quantitative mass spectrometry analysis, lung cancer cells were cultured for at least seven cell doublings in SILAC RPMI medium (88365, Thermo Fisher Scientific) supplemented with 10% FBS and heavy isotope-labeled amino acids (L-Lysine 13C6, L-Arginine 13C6) (CLM-2247-H-1, CLM-2265-H-1, Cambridge Isotope Laboratories). DAC-treated cells grown in the regular medium were considered as SILAC light counterparts.
(§3) Cancer cells (around 1.5×10^7 cells) were grown in a 15-cm culture dish and washed with ice-cold PBS (21040CM, Corning) before the labeling. […] The protein concentration of the supernatants was determined using Pierce 660 nm Protein Assay Reagent Kit (22660, Thermo Fisher Scientific) supplemented with Ionic Detergent Compatibility Reagent (22663, Thermo Fisher Scientific). […]

[2] = test system: A549, H1299 and CL1-0 human lung cancer cell lines; experiment: SILAC-based surface proteomics compared across cell lines; conditions: D3R3, A549, H1299, CL1-0
Protocol: as §1, §2, §3

H1299 lung cancer cells = experiment: Immunofluorescence imaging of immune synapses between cancer and γδ T cells; assay type: cell-based, human
Protocol: as §1
Cancer and γδ T cells were spun down onto poly-L-lysine coated coverslips by using a Cyto-Tek table-top cytofuge at 500 rpm for 5 minutes (Sakura Scientific) before fixation with ice-cold methanol or 4% (w/v) paraformaldehyde in PBS for 10 minutes. The fixed samples were blocked in detergent-free blocking solution [1% normal donkey serum (ab7475, abcam) and 3% BSA in PBS] without membrane permeabilization by detergents. Subsequently, cells were incubated with primary antibodies diluted in the blocking solution for 1 hour in a moist chamber at room temperature and washed with PBS. Labeling of fluorescent secondary antibodies at 1:200 dilution in PBS was carried out in the blocking buffer for 1 hour at room temperature. After PBS washing, cell nuclei were stained with Hoechst 33342 or DAPI (62248, Thermo Fisher Scientific) in PBS. Finally, the samples were washed with PBS and mounted on the slides. All slides were examined under an epifluorescence microscope EVOS FLc (Invitrogen), and the images were analyzed using the ImageJ software. For the visualization of immune synaptic proteins, cells were imaged with a high-resolution confocal microscope (LSM780, Zeiss) with a 63×oil objective and analyzed with the confocal software ZEN (Zeiss).

[3] = DAC D3R3 plus 1 μg/mL Cyto B 1.5 hours

Compound | Cytotoxicity / cell viability with DAC alone (A549 lung cancer cells) | Number of proteins with sustained upregulation by at least 1.4-fold [1] | Number of proteins commonly upregulated in all three lung cancer cell lines [2] | DAC-induced F-actin clustering and pTyr signaling at immune synapses (H1299 lung cancer cells; [3]) | ICAM-1 expression at immune synapses (H1299 lung cancer cells; [3]) | DAC effects on width of the synaptic cleft (H1299 lung cancer cells; DAC plus Cyto B) | DAC's enhancing effects on immune synapse formation (H1299 lung cancer cells; DAC plus Cyto B)
Nc1ncn([C@H]2C[C@H](O)[C@@H](CO)O2)c(=O)n1 [DAC, decitabine] | does not cause significant cytotoxicity; also recorded: minimal effects on cell viability | 314 | 431 |  |  |  | 
C=C1[C@@H](C)[C@H]2[C@H](Cc3ccccc3)NC(=O)[C@]23OC(=O)/C=C/[C@H](O)CCC[C@@H](C)C/C=C/[C@H]3[C@@H]1O [cytochalasin B] |  |  |  | abolished | minimal effects | diminished | significantly counteracted
